Experimental findings from patent publication US8846951B2 (AbbVie Inc., priority 2009, dated 2014) are described below.

Entries after “also recorded” stand apart in the source; their conditions may differ. Where only a bound is given, the exact number is not on record here.

Data set [1] has as its target T1, h-5-HT6 receptor (Homo sapiens, UniProt P50406).
T1 construct: expressed in transfected cells; host or cells: HEK293 cells (membranes)
Put plainly: Human 5-HT6 receptor radioligand binding assay (HEK293 membranes, [3H]-LSD). The following applies: HEK293 membranes expressing h-5-HT6 receptor, 1 nM [3H]-LSD; geometrical mean; read-out: Ki (5-HT6 Agonist Site Radioligand Binding). The method, then:
(v) Human 5-HT6 Receptor Radioligand Binding Assay
Preparation of Membranes by Ultrasonic Treatment and Differential Centrifugation
Cells from stable clonal cell lines expressing the corresponding receptor (5-HT6) were washed with PBS (without Ca^++, Mg^++) and harvested in PBS with 0.02% EDTA. The cells were collected by centrifugation at 500 g for 10 minutes at 4° C., washed with PBS and centrifuged (500 g, 10 minutes at 4° C.). The pellets were stored at −80° C. until use. For membrane preparation, the thawed cell pellet was resuspended in ice-cold sucrose buffer (0.25 M sucrose, 10 mM HEPES (pH 7.4), 1 mM phenylmethylsulfonyl fluoride (PMSF) in DMSO, 5 μg/ml Pepstatin-A, 3 mM EDTA, 0.025% Bacitracin) and homogenized with a Branson Sonifier W-250 (Settings: Timer 4; Output Control 3; Duty Cycle constant; 2 to 3 cycles). Cell disruption was checked with the aid of a microscope. Remaining unbroken cells were pelleted at 1,000 g for 10 minutes at 4° C. The sucrose buffer supernatant was then centrifuged at 60,000 g for 1 hour at 4° C. (Beckman Ultracentrifuge XL 80). The pellet was resuspended in 30 mL of ice-cold Tris buffer (20 mM TRIS (pH 7.4), 5 μg/mL Pepstatin A, 0.1 mM PMSF, 3 mM EDTA) by pipetting through a 10 mL serological pipette and centrifuged for 1 hour at 4° C. at 60,000 g. A final resuspension was performed in a small volume of ice-cold Tris buffer (see above) by pressing through a serological pipette followed by ultrasonic treatment with a Branson Sonifier W-250 (Settings: Timer 1; Output Control 3; Duty Cycle constant; 1 cycle). Protein concentration was determined (BCA-Kit; Pierce) and aliquots stored at −80° C. or in liquid nitrogen for long-term storage.
Receptor Binding Experiments
All receptor binding experiments were carried out in the corresponding assay buffer in a total volume of 200 μL in the presence of various concentrations of test compound (10^−5 M to 10^−9 M, tenfold serial dilution, duplicate determinations). The assays were terminated by filtration on polyethylenimine (PEI 0.1% or 0.3%) presoaked Packard Unifilter Plates (GF/C or GF/B) with a Tomtec MachIII U 96 well-plate harvester. After the plates had been dried for 2 hours at 55° C. in a drying chamber scintillation cocktail (BetaPlate Scint; PerkinElmer) was added. Radioactivity was measured in a Microbeta Trilux two hours after the addition of the scintillation mixture.
5-HT6 Receptor Binding Assay
HEK293 cells stably expressing the h-5-HT6 receptor (NCBI Reference Sequence XM 001435) were cultured in RPMI1640 medium supplemented with 25 mM HEPES, 10% fetal calf serum and 1-2 mM glutamine. The membrane preparation was performed as described above. […] On the day of the assay, the membranes were thawed, diluted in assay buffer (50 mM Tris-HCl, 5 mM CaCl2, 0.1% ascorbic acid, 10 μM pargyline, pH 7.4) to a concentration of 8 μg protein/assay and homogenized by gentle vortexing. […] Non-specific binding was defined with 1 μM methiothepin. The binding reaction was carried out for 3.5 hours at room temperature. During the incubation, the plates were shaken on a plate shaker at 100 rpm and terminated by filtration on Packard Unifilter GF/C (0.1% PEI) plates, followed by 2 wash cycles with ice-cold 50 mM Tris-HCl, 5 mM CaCl2.
Data derived from liquid scintillation counting were analyzed by iterative non-linear regression analysis with the use of the Statistical Analysis System (SAS): a program similar to “LIGAND” as described by Munson and Rodbard (Anal. Biochem. 1980, 107, 220-239). Fitting was performed according to formulae described by Feldman (Anal. Biochem. 1972, 48, 317-338). IC50 and Ki values were expressed as geometrical mean.

The target in data set [2] is T2, 5HT2C receptors (Homo sapiens, UniProt P28335).
T2 sequence (P28335 33-458): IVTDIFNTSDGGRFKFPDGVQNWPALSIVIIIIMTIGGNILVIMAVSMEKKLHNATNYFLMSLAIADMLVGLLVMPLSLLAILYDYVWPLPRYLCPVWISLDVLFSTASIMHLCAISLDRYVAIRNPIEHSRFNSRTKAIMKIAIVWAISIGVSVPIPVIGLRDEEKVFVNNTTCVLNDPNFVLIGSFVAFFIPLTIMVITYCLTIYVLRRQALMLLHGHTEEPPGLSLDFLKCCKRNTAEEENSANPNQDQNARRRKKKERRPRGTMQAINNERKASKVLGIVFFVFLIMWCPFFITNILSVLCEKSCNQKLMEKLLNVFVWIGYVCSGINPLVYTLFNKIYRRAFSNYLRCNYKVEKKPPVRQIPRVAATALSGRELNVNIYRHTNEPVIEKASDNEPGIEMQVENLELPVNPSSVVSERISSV
As to the kind of experiment: Human 5-HT2C functional assay in CHO-K1 cells (96-well, calcium, FLIPR). The format is cell-based. More on the design: expressed in transfected cells. The following applies: 5-HT2c agonist activity, CHO-K1 cells stably transfected. The method, then:
(iv) Human 5-HT2C Functional Assay in CHO-K1 Cells
Functional activity was determined by testing the effect of the compounds on intracellular calcium levels in CHO-K1 cells stably transfected with the human 5-HT2C receptor. Cells were seeded into 96-well plates at 60,000 cells/well and grown overnight in tissue culture medium (UltraCHO™ (Lonza), containing 1% dFCS, 250 μg/mL Zeocin, 400 μg/mL Geneticin) at 37° C. and 5% CO2. Growth medium was replaced by medium without dFCS for overnight incubation. Cells were loaded with a fluorescent calcium-sensitive dye in the presence of probenicid according to the manufacturer's protocol (FLIPR Ca4 Assay kit, Molecular Devices). Serial compound dilutions (final concentrations 10^−10 to 10^−5 M) were added to the cells and the maximum calcium response was determined using a FLIPR instrument (Molecular Devices). Concentration-response curves were fitted using a four-parameter logistic equation (GraphPad Prism). The concentration at which the compound exerts half its maximal effect is named the ‘effective concentration 50’ or ‘EC50’ and is listed in Table 5.

The test system of data set [3] is AMP- or PCP-induced hyperactivity. As to the kind of experiment: Psychostimulant (AMP or PCP)-induced hyperlocomotion in mice. Conditions: for spontaneous activity: after ip test compound, before psychostimulant; for AMP-induced hyperactivity: test compound ip 30 min before d-amphetamine 2.0 mg/kg sc. It counts as in vivo, mouse. The text has this:
(x) Assessment of Effects on Psychostimulant-Induced Hyperlocomotion in Mice
In both humans and experimental animals amphetamine (AMP) profoundly affects motor activity, sensorimotor function, sleep, attention, aggressive and sexual behaviors, learning and memory, operant behaviors, appetite and food intake. In addition, amphetamine induces psychotic reactions in normal individuals and exacerbates symptoms of schizophrenia in patients. In experimental animals several distinct behaviors are considered to be correlates of amphetamine psychosis. For example, amphetamine-induced hyperactivity in rodents is believed to model the psychotic symptoms of schizophrenia. Reversal of these behaviors is used to predict potential antipsychotic activity of drugs in pre-clinical studies.
In humans, phencyclidine (PCP) is known to produce a syndrome of behavioral effects which have many characteristics in common with schizophrenia. Therefore, antagonism of PCP effects might be evidence for antipsychotic efficacy of a compound.
Male NMRI mice (5-week old, Janvier, France) or C57BL/6J mice (6-week old, Janvier, France) were group housed and allowed ad-libitum access to food and water. A 12 hour light/dark cycle was imposed with lights-on period between 0530 and 1730 hours. All testing occurred between 700 and 1300 hours. All procedures were approved by Abbott Institutional Animal Care and Use Committee (USA) or Animal Welfare Officer (Germany) and were conducted in accordance with the National Institutes of Health Guide for Care and Use of Laboratory Animals guidelines and applicable national laws in the facilities accredited by the Association for the Assessment and Accreditation of Laboratory Animal Care.
On the day of experiment, animals were brought from the animal facility into the experimental room and were allowed to acclimatize for at least 30 minutes. Animals were then placed in the test cages for a habituation period of 60 minutes. The animals were then injected ip with the test compound and returned to the test cage. 30 Minutes later the mice were injected with d-amphetamine (2.0 mg/kg, AMP, Sigma, #A5880, sc) or phencyclidine (2.0 mg/kg, PCP, Sigma, #P3029, sc) Sigma, and returned to the test cages for 90 minutes. Each treatment group consisted of 8-10 animals. The data was acquired by Cage rack Photobeam system (SDI, San Diego Instruments, CA). The analyzed data were: fine movements, ambulations and total movements (fine+ambulations). Data was subjected to one- or two-way distribution-free ANOVA followed by Dunnett's and Tukey's post hoc tests.

Data set [4] deals with T3, 5HT2B receptors (Homo sapiens, UniProt P41595).
T3 construct: expressed in transfected cells; host or cells: CHO-K1 cells
T3 sequence (P41595 whole entry): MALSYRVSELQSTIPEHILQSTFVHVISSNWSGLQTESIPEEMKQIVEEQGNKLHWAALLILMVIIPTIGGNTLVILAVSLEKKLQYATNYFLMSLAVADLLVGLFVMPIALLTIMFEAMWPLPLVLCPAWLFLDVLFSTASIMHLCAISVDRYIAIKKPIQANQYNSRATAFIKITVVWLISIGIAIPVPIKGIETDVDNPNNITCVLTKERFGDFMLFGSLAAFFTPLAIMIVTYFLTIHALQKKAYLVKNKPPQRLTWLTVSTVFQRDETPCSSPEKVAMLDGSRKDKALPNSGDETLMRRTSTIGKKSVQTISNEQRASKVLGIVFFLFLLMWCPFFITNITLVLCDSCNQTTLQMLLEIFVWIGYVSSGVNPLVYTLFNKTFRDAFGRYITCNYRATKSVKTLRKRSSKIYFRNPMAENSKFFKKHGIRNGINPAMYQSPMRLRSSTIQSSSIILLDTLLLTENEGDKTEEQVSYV
As to the kind of experiment: Human 5-HT2B functional high throughput screening assay in CHO-K1 cells (calcium flux). The format is cell-based. The following applies: for Emax: CHO-K1; for EC50: EC50, 5-HT2B agonist activity, CHO-K1 cells, calcium flux. The method, boiled down:
(§1)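 Serum-starved CHO-K1 cells carrying the receptor; Ca4 dye, 60 min RT. Test compound added after a 10 s baseline, fluorescence followed for 3 min. EC50 from 4-parameter fit; Emax given as % of serotonin effect.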
Background: A change in cytosolic calcium serves as a functional read-out for many receptors and channels.

The target in data set [5] is T2, 5HT2C receptors. Put plainly: Human 5-HT2C functional assay in 1321N1 cells (intracellular calcium, FLIPR). The format is cell-based. On the set-up: expressed in transfected cells; host or cells: 1321N1 cells. The following applies: 5-HT2c agonist activity, maximum calcium response. The method, boiled down: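 Intracellular calcium (Fluo-4, FLIPR peak response) was measured in stably transfected human 5-HT2C 1321N1 cells after overnight serum-free culture. Compounds were applied at final 10^−10 to 10^−5 M either alone or together with 10^−9 M serotonin. Half-maximal effect concentration was derived by four-parameter logistic fitting.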

The target in data set [6] is T2, 5HT2C receptors. Put plainly: Human 5-HT2C functional high throughput screening assay in CHO-K1 cells (calcium flux). The format is cell-based. On the set-up: expressed in transfected cells; host or cells: CHO-K1 cells. Conditions: for Emax: CHO-K1, 5-HT2C, maximum functional response as percentage relative to the effect of serotonin; for EC50: EC50, 5-HT2C agonist activity, CHO-K1 cells, calcium flux. The method, boiled down: as §1

Data set [7] has as its target T4, human serotonin 5-HT2c receptor (Homo sapiens, UniProt P28335).
T4 construct: expressed in transfected cells; host or cells: CHO cells (membrane homogenates)
T4 sequence (P28335 33-458): T2 sequence (P28335 33-458)
As to the kind of experiment: Human 5-HT2C receptor radioligand binding assay (agonist site, [125I]DOI). The following applies: 5-HT2c agonist site; transfected CHO cell membranes; 0.2 nM [125I](±)DOI. On the procedure: (i) Human 5-HT2C Receptor Radioligand Binding Assay
Affinity of compounds for the agonist site of the […], receptor in transfected CHO cells was determined in a radioligand binding assay essentially as described by Bryant, H. U., et al., Life Sciences (1996) 59(15), 1259-1268.

T1 sequence (P50406 whole entry): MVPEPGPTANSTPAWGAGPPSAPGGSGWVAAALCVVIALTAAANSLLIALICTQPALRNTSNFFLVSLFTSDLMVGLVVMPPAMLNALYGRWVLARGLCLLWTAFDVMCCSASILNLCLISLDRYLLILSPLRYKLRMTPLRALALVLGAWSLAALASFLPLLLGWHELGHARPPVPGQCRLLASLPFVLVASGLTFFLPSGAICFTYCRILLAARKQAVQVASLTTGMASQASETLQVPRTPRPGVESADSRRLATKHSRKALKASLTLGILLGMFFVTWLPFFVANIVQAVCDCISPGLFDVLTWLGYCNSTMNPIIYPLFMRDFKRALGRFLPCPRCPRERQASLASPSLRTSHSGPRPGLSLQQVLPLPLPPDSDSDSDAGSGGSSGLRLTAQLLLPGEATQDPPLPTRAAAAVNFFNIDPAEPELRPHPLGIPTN

For `COc1ccc(CN2C[C@H]3CN(S(=O)(=O)c4cccc(F)c4)Cc4ccccc4[C@@H]3C2)cc1` (relative stereo) [Example 73, Trans-5-(3-fluorophenylsulfonyl)-2-(4-methoxybenzyl)-1,2,3,3a,4,5,6,10b-octahydrobenzo[c]pyrrolo[3,4-e]azepine], the inhibition constant Ki – broadly, a measure of affinity in units of concentration, obtained from inhibition or displacement – in data set [1] is 14.3 nM. In addition, the EC50 (usually the concentration needed to bring the measured effect to its halfway point) in data set [2] was greater than 1000 nM.

As for `O=S(=O)(c1cccc(F)c1)N1Cc2ccccc2[C@@H]2CN(Cc3ccc(F)cc3)C[C@H]2C1` (relative stereo) [Example 74, Trans-2-(4-fluorobenzyl)-5-(3-fluorophenylsulfonyl)-1,2,3,3a,4,5,6,10b-octahydrobenzo[c]pyrrolo[3,4-e]azepine], the Ki in data set [1] was 9.81 nM. Also, in data set [2], the concentration giving a half-maximal response (EC50) was greater than 10000 nM.

On to `O=C1NC[C@H]2CNC[C@@H]2c2ccccc21` [Example 44, (3aR,10bS)-1,2,3,3a,4,5-Hexahydrobenzo[c]pyrrolo[3,4-e]azepin-6(10bH)-one], for which the spontaneous activity entry in data set [3] is given as “without affecting spontaneous activity”. In data set [3] (test compound ip 30 min before PCP 2.0 mg/kg sc), the PCP-induced hyperactivity result was “attenuated PCP-induced hyperactivity in mice significantly and in a dose dependent manner; also recorded: attenuating the affect of phencyclidine (PCP)”. Also, the Emax in data set [4] and in data set [6] was 100% throughout. In addition, the EC50 in data set [4] turned out to be 500 nM; in data set [5], 3.02 nM; in data set [6], 1 nM. In data set [7], this compound registered a Ki of 9.5 nM.

As for `O=C1NC[C@H]2CNC[C@@H]2c2c(F)cc(F)cc21` [Example 106, (3aR,10bS)-8,10-Difluoro-1,2,3,3a,4,5-hexahydrobenzo[c]pyrrolo[3,4-e]azepin-6(10bH)-one], in data set [3], the spontaneous activity entry is recorded as “without affecting spontaneous activity” and the AMP-induced hyperactivity entry is “modestly attenuated AMP-induced hyperactivity in mice in a dose dependent manner; also recorded: attenuating the affect of d-amphetamine (AMP)”. Besides, in data set [4], the Emax (as a rule, the greatest response seen or fitted, relative to the assay's reference) was determined as 95% and the EC50 came to 100 nM. For the same compound, in data set [6], the maximal effect (Emax) is greater than 120% and the EC50 amounted to 0.4 nM.

Consider `CN1C[C@H]2CNC[C@@H]2c2ccc(F)cc2C1=O` [Example 225, (3aR,10bS)-8-Fluoro-5-methyl-1,2,3,3a,4,5-hexahydrobenzo[c]pyrrolo[3,4-e]azepin-6(10bH)-one], for which, in data set [3], the spontaneous activity entry is reported as “without affecting spontaneous activity” and the AMP-induced hyperactivity result is “modestly attenuated AMP-induced hyperactivity in mice; also recorded: attenuating the affect of d-amphetamine (AMP)”. Further, in data set [4], the maximum response (Emax) turned out to be 110% and the EC50 stood at 2000 nM. In data set [6], the Emax was greater than 120% and the 50% effective concentration (EC50) was 20 nM.
